Assay results reported in patent EP0676201B1, “Use of a riminophenazine for treating MDR resistance” (priority 1994, dated 1995).
≈ marks a conversion by molar mass, not a printed value. Where two headings read alike, the source gives them in different places.

Tests used:
[1] = test system: K562/MMB; assay: MTT assay, 7-day exposure to riminophenazines alone or with fixed doxorubicin or vinblastine (Example 4); assay type: cell-based; settings: Homo sapiens, K562, 168 h
Excerpt: A third cell line (562/MMB) used was a MDR leukemia cell line selected in vitro by progressive exposure to increasing concentrations of vinblastine in order to increase P-glycoprotein expression. […] This cell line expresses high levels of P-glycoprotein as determined by flowcytometry using the monoclonal antibody (MRK 16) against this molecule.
The effects were examined of a 7-day exposure of selected compounds on the sensitivity of the cell line (K562/MMB) to the standard chemotherapeutic agents doxorubicin and vinblastine, using the MTT assay.
The cells were seeded at 1 x 10^4 cells per well in 96 well microlitre plates in a volume of 200 µl of RPMI 1640 medium containing 10 % fetal calf serum and incubated with doxorubicin (12.5 ng/ml) or vinblastine (3 ng/ml). The amounts of MDR modulators used were 0.03, 0.06, 0.125, 0.5, 1.0 and 2.0 µg/ml.
After incubation at 37 °C for 7 days, 20 µl MTT (i.e. 3-[4,5-dimethylthiazol-2-yl]2,5-diphenyl-tetrazolium bromide) at 5 mg/ml was added to each well and the plates incubated for a further 4 hours. The cells were washed with phosphate buffered saline and the intracellular formazan crystals solubilized with dimethylsulphoxide, and the absorbency measured spectrophotometrically at a test wavelength of 540 nm and a reference wavelength of 620 nm.

[2] = test system: H69/LX4; assay: [14C]-vinblastine accumulation in MDR cell line (Example 2); assay type: cell-based, human; settings: 1 hour pretreatment; 250 µg/mℓ [14C]-vinblastine for 30 minutes
Method: The effect of riminophenazines on the accumulation of [^14C]-vinblastine was investigated. For these experiments, both of the above cell lines (H69/LX4 and H69/P) were prepared as described by Coley et al (Biochem. Pharmacal 38, 4467-4475 (1989)). After a 1 hour pretreatment with the MDR reversal agents, cells (1 x 10^6/mℓ) were exposed to 250 µg/mℓ [^14C]-vinblastine (1 µCi specific activity) for 30 minutes. […] The results are illustrated in Figure 3 of the accompanying drawings.

[3] = test system: H69/LX4; assay: MTT assay, 7-day exposure: sensitivity of resistant (MDR) cells to chemotherapeutic agents with or without MDR inhibitor (Example 1); assay type: cell-based; settings: Homo sapiens, 168 h
Excerpt: (§1) A further test using no MDR inhibitor was used as a standard.
The cell lines used were human small cell lung cancer cell line HP69/P and a multi-drug resistant (MDR) sub-line H69/LX4, both of which were supplied by the MRC Clinical Oncology and Radiotherapeutics Unit, Hills Road, Cambridge, England. The maintenance of the cell lines and drug response assays was done as described by Twentyman et al in British Journal of Cancer Volume 65 pages 335-340. The H69/LX4 line was originally described by Twentyman et al in British Journal of Cancer Volume 53, pages 529-637 (1986).
The data in parenthesis represents fold sensitivity compared with the chemotherapeutic agent without the MDR inhibitor.

[4] = test system: H69/P; assay: MTT assay, 7-day exposure: sensitivity of parent cells to chemotherapeutic agents with or without MDR inhibitor (Example 1); assay type: cell-based, human; settings: for fold sensitivity compared with the chemotherapeutic agent without the MDR inhibitor, B669 / fold sensitivity compared with the chemotherapeutic agent without the MDR inhibitor, Clofazimine (B663) / fold sensitivity compared with the chemotherapeutic agent without the MDR inhibitor, CsA: value in parenthesis; for fold sensitivity compared with the chemotherapeutic agent without the MDR inhibitor, CsA: with CsA 5 µg/ml; for IC50: Homo sapiens, 168 h
Excerpt: as §1

[5] = test system: H69/LX4; assay: MTT assay, 7-day exposure to riminophenazines alone or with fixed doxorubicin or vinblastine (Example 3); settings: Homo sapiens, 168 h, read-out: cytotoxic activity: concentrations at which cytotoxic
Method: The effects were examined of a 7-day exposure of selected compounds on the sensitivity of the cell line (H69/P) and the resistance cell line (H69/LX4) to the standard chemotherapeutic agents doxorubicin and vinblastine, using the MTT assay.
After incubation at 37°C for 7 days, 20 µℓ MTT (ie 3-[4,5-dimethylthiazol-2-yl]-2,5-diphenyl-tetrazolium bromide) at 5 mg/ml was added to each well and the plates incubated for a further 4 hours. The cells were washed with phosphate buffered saline and the intracellular formazan crystals solubilized with dimethylsulphoxide, and the absorbence measured spectrophotometrically at a test wavelength of 540 nm and a reference wavelength of 620 nm. The mean percentage inhibition ± SEM of four experiments using the relevant controls was taken.

[6] = in the presence of doxorubicin (12 ng/ml), read-out: IC 50 of riminophenazine, Doxorubicin
[7] = in the presence of vinblastine (3 ng/ml), read-out: IC 50 of riminophenazine, Vinblastine
[8] = riminophenazine alone, mean of 2 experiments, read-out: IC 50 of riminophenazine, None
[9] = read-out: IC50 of chemotherapeutic agent, MDR INHIBITOR CsA
[10] = H69/LX4, no MDR inhibitor, 7 day exposure, mean of 2 - 4 experiments, read-out: IC50 of chemotherapeutic agent, MDR INHIBITOR None
[11] = H69/LX4, with B669 0.5 µg/ml, 7 day exposure, read-out: IC50 of chemotherapeutic agent, MDR INHIBITOR B669
[12] = H69/LX4, with Clofazimine 1 µg/ml, 7 day exposure, read-out: IC50 of chemotherapeutic agent, MDR INHIBITOR Clofazimine (B663)
[13] = H69/P, with Clofazimine 1 µg/ml
[14] = H69/P, no MDR inhibitor, 7 day exposure, mean of 2 - 4 experiments, read-out: IC50 of chemotherapeutic agent, MDR INHIBITOR None
[15] = H69/P, with B669 0.5 µg/ml, 7 day exposure, read-out: IC50 of chemotherapeutic agent, MDR INHIBITOR B669
[16] = H69/P, with Clofazimine 1 µg/ml, 7 day exposure, read-out: IC50 of chemotherapeutic agent, MDR INHIBITOR Clofazimine (B663)

IC50 [1, 6]	IC50 [1, 8]	SMILES	IC50 [1, 7]	vinblastine accumulation in the MDR cell line (H69/LX4) [2]	IC50 [3, 9]	IC50 [3, 10]	IC50 [3, 11]	IC50 [3, 12]	fold sensitivity compared with the chemotherapeutic agent without the MDR inhibitor, B669 ([4]; H69/P, with B669 0.5 µg/ml)	fold sensitivity compared with the chemotherapeutic agent without the MDR inhibitor, Clofazimine (B663) [4, 13]	fold sensitivity compared with the chemotherapeutic agent without the MDR inhibitor, CsA ([4]; H69/P)	IC50 [4, 9]	IC50 [4, 14]	IC50 [4, 15]	IC50 [4, 16]	MCC [5]
69 ng/mL	139 ng/mL (≈ 0.313 µM)	c1ccc(Nc2cc3nc4ccccc4n(-c4ccccc4)c-3cc2=NC2CCCCC2)cc1 [Compound B669]		significant enhancement												
		CN(Cc1cnc2nc(N)nc(N)c2n1)c1ccc(C(=O)N[C@@H](CCC(=O)O)C(=O)O)cc1 [Methotrexate]			4600 ng/mL (≈ 10.1 µM)	3200 ng/mL (≈ 7.04 µM)	3500 ng/mL (≈ 7.7 µM)	4400 ng/mL (≈ 9.68 µM)	1.0 fold	0.9 fold	1.5 fold	2400 ng/mL (≈ 5.28 µM)	3500 ng/mL (≈ 7.7 µM)	3400 ng/mL (≈ 7.48 µM)	3700 ng/mL (≈ 8.14 µM)	
969 ng/mL	2860 ng/mL (≈ 4.04 µM)	CC1(C)CC(N=c2cc3n(-c4cc(Cl)c(Cl)c(Cl)c4)c4ccccc4nc-3cc2Nc2cc(Cl)c(Cl)c(Cl)c2)CC(C)(C)N1 [Compound B4169, N,5-bis(3,4,5-trichlorophenyl)-3,5-dihydro-3[(2',2',6',6'-tetramethyl-4-piperidyl)-imino]-2-phenazinamine]	116 ng/mL													> 12.5 µg/mL
		COc1cc([C@@H]2c3cc4c(cc3[C@@H](O[C@@H]3O[C@@H]5CO[C@@H](C)O[C@H]5[C@H](O)[C@H]3O)[C@H]3COC(=O)[C@H]23)OCO4)cc(OC)c1O [Etoposide]			0.08 ng/mL (≈ 0.000136 µM)	13 ng/mL (≈ 0.0221 µM)	0.09 ng/mL (≈ 0.000153 µM)	2.6 ng/mL (≈ 0.00442 µM)	1.2 fold	0.6 fold	0.8 fold	0.09 ng/mL (≈ 0.000153 µM)	0.7 ng/mL (≈ 0.00119 µM)	0.06 ng/mL (≈ 0.000102 µM)	0.11 ng/mL (≈ 0.000187 µM)	

SMILES	IC50 [1, 6]	IC50 [1, 8]	IC50 [1, 7]	vinblastine accumulation in the MDR cell line (H69/LX4) [2]	IC50 [3, 9]	IC50 [3, 10]	IC50 [3, 11]	IC50 [3, 12]	fold sensitivity compared with the chemotherapeutic agent without the MDR inhibitor, B669 ([4]; H69/P, with B669 0.5 µg/ml)	fold sensitivity compared with the chemotherapeutic agent without the MDR inhibitor, Clofazimine (B663) [4, 13]	fold sensitivity compared with the chemotherapeutic agent without the MDR inhibitor, CsA ([4]; H69/P)	IC50 [4, 9]	IC50 [4, 14]	IC50 [4, 15]	IC50 [4, 16]	MCC [5]
CC(C)N=c1cc2n(-c3ccc(Cl)cc3)c3ccccc3nc-2cc1Nc1ccc(Cl)cc1 [Compound B663, N,5-bis-(4-chlorophenyl)-3,5-dihydro-3-[(1-methylethyl)imino]-2-phenazinamine]	135 ng/mL	225 ng/mL (≈ 0.475 µM)	< 50 ng/mL	significant enhancement												
